Positions count from the first letter of the chain named.
Tests used:
[1] = target: T1, Androgen Receptor, MDA-PCa-2b (AR T878A/L702H) (Homo sapiens, UniProt P10275, L702H/T878A); test: Androgen Receptor Degradation-Imaging Assay, MDA-PCa-2b cell line; assay type: cell-based; conditions: 16 hours treatment, maximum observed degradation
T1 construct: host or cells: MDA-PCa-2b
T1 sequence (P10275 1-920 L702H/T878A): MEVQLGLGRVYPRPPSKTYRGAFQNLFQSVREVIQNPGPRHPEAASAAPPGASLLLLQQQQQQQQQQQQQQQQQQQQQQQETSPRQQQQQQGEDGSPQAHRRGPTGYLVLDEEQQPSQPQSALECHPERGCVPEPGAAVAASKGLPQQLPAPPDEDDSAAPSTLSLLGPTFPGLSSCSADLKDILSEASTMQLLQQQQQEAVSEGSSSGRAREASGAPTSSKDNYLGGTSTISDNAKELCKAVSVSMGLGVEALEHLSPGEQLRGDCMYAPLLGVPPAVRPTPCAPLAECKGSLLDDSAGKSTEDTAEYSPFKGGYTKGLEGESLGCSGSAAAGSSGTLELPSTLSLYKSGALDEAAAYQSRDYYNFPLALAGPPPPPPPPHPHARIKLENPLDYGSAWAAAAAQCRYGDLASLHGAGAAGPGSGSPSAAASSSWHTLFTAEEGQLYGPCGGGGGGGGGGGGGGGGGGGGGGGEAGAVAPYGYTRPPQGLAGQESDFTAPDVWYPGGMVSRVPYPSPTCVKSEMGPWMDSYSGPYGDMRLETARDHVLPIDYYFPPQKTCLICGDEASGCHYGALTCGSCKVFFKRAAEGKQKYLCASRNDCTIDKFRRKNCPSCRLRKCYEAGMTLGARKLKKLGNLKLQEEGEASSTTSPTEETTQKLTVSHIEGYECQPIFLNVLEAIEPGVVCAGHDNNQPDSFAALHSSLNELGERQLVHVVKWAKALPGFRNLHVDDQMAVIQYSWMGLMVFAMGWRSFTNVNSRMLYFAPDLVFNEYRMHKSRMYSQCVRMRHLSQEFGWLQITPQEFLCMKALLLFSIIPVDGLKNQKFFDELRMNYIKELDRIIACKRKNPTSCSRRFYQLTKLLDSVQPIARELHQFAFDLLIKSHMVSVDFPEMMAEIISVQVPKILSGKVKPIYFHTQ
Method: (§1) Degradation of Androgen Receptor (AR) protein in human prostate cancer cell lines (MDA-PCa-2b (AR T878A/L702H), LNCaP (AR T878A), VCaP (AR wild type and amplified) 22RV1 (AR H875Y) and PC3 (AR negative control)) treated with AR PROTACs was quantified using immunofluorescence. Prostate cancer cells were plated (MDA-PCa-2b, and VCaP 16,000 cells/well; LNCaP and 22RV1 32,000 cells/well, and PC3 8,000 cells/well) in an optical bottom 96-well cell culture plate and allowed to attach overnight. The prostate cancer cell lines were treated for 16 hours with a 10-point 3-fold dilution series (dose range=0.02 nM to 333 nM). PC3 is included as an AR negative control and not treated with compound. Cells are fixed and permeabilized with 4% formaldehyde, blocked with 10% goat serum in immunofluorescence (IF) buffer (130 mM NaCl, 7 mM Na2HPO4, 3.5 mM NaH2PO4, 7.7 mM NaN3, 0.1% BSA, 0.2% Triton X, 0.05% Tween 20) prior to overnight incubation with rabbit antibody specific for C terminus of AR (commercially available from RevMaB Biosciences). Following washes with IF buffer, cells were incubated with fluorescent secondary antibody (Goat anti-rabbit Alexa 647; commercially available from Invitrogen) and Hoechst nuclear stain (commercially available from Themo Scientific) prior to quantification of nuclear AR levels via Opera Phenix high-content fluorescent imager using a 40× water objective. Image analysis was performed with Harmony software.
(§2) The averaged nuclear Alexa 647 median fluorescence intensity (MFI) of PC3 cells is subtracted from the nuclear Alexa 647 MFI of PROTAC treated and DMSO control treated cells. % AR remaining is calculated for PROTAC treatments as a percent of the DMSO control (MFI PROTAC treated/MFI DMSO control treated)*100). DC50 and the Dmax values, were obtained from these normalised values fitted with a 4-parameter sigmoidal response curve (Xlfit software). The DC50 is the interpolated concentration of PROTAC corresponding to 50% of the protein being degraded, and the Dmax parameter is the maximum experimentally observed degradation.

[2] = target: T2, Androgen Receptor, VCaP (AR wild type and amplified) (Homo sapiens, UniProt P10275); test: Androgen Receptor Degradation-Imaging Assay, VCaP cell line; assay type: cell-based; conditions: 16 hours treatment, maximum observed degradation
T2 construct: endogenous in cells; host or cells: VCaP
T2 sequence (P10275 1-920): T1 sequence (P10275 1-920 L702H/T878A) with H702L, A878T
Method: as §1, §2

In the case of `CC1(C)[C@H](NC(=O)c2cc(F)c(N3CCC(CN4CCC(n5ncc6c(N7CCC(=O)NC7=O)cccc65)CC4)CC3)c(F)c2)C(C)(C)[C@H]1Oc1ccc(C#N)c2ncccc12` [Example 30, N-((1r,3r)-3-((8-Cyanoquinolin-5-yl)oxy)-2,2,4,4-tetramethylcyclobutyl)-4-(4-((4-(4-(2,4-dioxotetrahydropyrimidin-1(2H)-yl)-1H-indazol-1-yl)piperidin-1-yl)methyl)piperidin-1-yl)-3,5-difluorobenzamide], the Dmax [1] is reported as no less than 80% and the Dmax [2] is reported as no less than 80%.

`CC1(C)[C@H](NC(=O)c2ccc(N3CCC(CN4CCC(n5ccc6c(N7CCC(=O)NC7=O)cccc65)CC4)CC3)c(F)c2)C(C)(C)[C@H]1Oc1ccc(C#N)c2ncccc12` [Example 31, N-((1r,3r)-3-((8-Cyanoquinolin-5-yl)oxy)-2,2,4,4-tetramethylcyclobutyl)-4-(4-((4-(4-(2,4-dioxotetrahydropyrimidin-1(2H)-yl)-1H-indol-1-yl)piperidin-1-yl)methyl)piperidin-1-yl)-3-fluorobenzamide] gave a Dmax [1] of no less than 80% and a Dmax [2] of no less than 80%.

`CC1(C)[C@H](NC(=O)c2ccc(N3CCC(CN4CCC(n5ncc6c(N7CCC(=O)NC7=O)ccnc65)CC4)CC3)c(F)c2)C(C)(C)[C@H]1Oc1ccc(C#N)c2ncccc12` [Example 40, N-((1r,3r)-3-((8-Cyanoquinolin-5-yl)oxy)-2,2,4,4-tetramethylcyclobutyl)-4-(4-((4-(4-(2,4-dioxotetrahydropyrimidin-1(2H)-yl)-1H-pyrazolo[3,4-b]pyridin-1-yl)piperidin-1-yl)methyl)piperidin-1-yl)-3-fluorobenzamide] showed a Dmax [1] of no less than 80% and a Dmax [2] of no less than 80%.

`CC1(C)[C@H](NC(=O)c2ccc(N3CCC(O)(CN4CCC(n5ncc6c(N7CCC(=O)NC7=O)cccc65)CC4)CC3)c(F)c2)C(C)(C)[C@H]1Oc1ccc(C#N)c2ncccc12` [Example 48, N-((1r,3r)-3-((8-Cyanoquinolin-5-yl)oxy)-2,2,4,4-tetramethylcyclobutyl)-4-(4-((4-(4-(2,4-dioxotetrahydropyrimidin-1(2H)-yl)-1H-indazol-1-yl)piperidin-1-yl)methyl)-4-hydroxypiperidin-1-yl)-3-fluorobenzamide] showed a Dmax [1] of no less than 80% and a Dmax [2] of no less than 80%.

`CC1(C)[C@H](NC(=O)c2ccc(N3CCC4(CC3)CC(N3CCC(n5ncc6c(N7CCC(=O)NC7=O)cccc65)CC3)C4)c(F)c2)C(C)(C)[C@H]1Oc1ccc(C#N)c2ncccc12` [Example 49, N-((1r,3r)-3-((8-Cyanoquinolin-5-yl)oxy)-2,2,4,4-tetramethylcyclobutyl)-4-(2-(4-(4-(2,4-dioxotetrahydropyrimidin-1(2H)-yl)-1H-indazol-1-yl)piperidin-1-yl)-7-azaspiro[3.5]nonan-7-yl)-3-fluorobenzamide] showed a Dmax [1] of no less than 80% and a Dmax [2] of no less than 80%.

`CC1(C)[C@H](NC(=O)c2ccc(N3CCC(CN4CCC(n5ncc6c(N7CCC(=O)NC7=O)cccc65)CC4)CC3)c(F)c2)C(C)(C)[C@H]1Oc1ccc(C#N)c2c1CCCO2` [Example 8, N-((1r,3r)-3-((8-Cyanochroman-5-yl)oxy)-2,2,4,4-tetramethylcyclobutyl)-4-(4-((4-(4-(2,4-dioxotetrahydropyrimidin-1(2H)-yl)-1H-indazol-1-yl)piperidin-1-yl)methyl)piperidin-1-yl)-3-fluorobenzamide] gave a Dmax [1] of no less than 80% and a Dmax [2] of no less than 80%.

Work on `CC1(C)[C@H](NC(=O)c2ccc(N3CCC(CN4CCC(n5ncc6c(N7CCC(=O)NC7=O)c(F)ccc65)CC4)CC3)c(F)c2)C(C)(C)[C@H]1Oc1ccc(C#N)c2ncccc12` [Example 50, N-((1r,3r)-3-((8-Cyanoquinolin-5-yl)oxy)-2,2,4,4-tetramethylcyclobutyl)-4-(4-((4-(4-(2,4-dioxotetrahydropyrimidin-1(2H)-yl)-5-fluoro-1H-indazol-1-yl)piperidin-1-yl)methyl)piperidin-1-yl)-3-fluorobenzamide] yielded a Dmax [1] of no less than 80% and a Dmax [2] of no less than 80%.

Work on `CC1(C)[C@H](NC(=O)c2ccc(N3CCC(CN4CCC(n5ncc6c(N7CCC(=O)NC7=O)nccc65)CC4)CC3)c(F)c2)C(C)(C)[C@H]1Oc1ccc(C#N)c2ncccc12` [Example 39, N-((1r,3r)-3-((8-Cyanoquinolin-5-yl)oxy)-2,2,4,4-tetramethylcyclobutyl)-4-(4-((4-(4-(2,4-dioxotetrahydropyrimidin-1(2H)-yl)-1H-pyrazolo[4,3-c]pyridin-1-yl)piperidin-1-yl)methyl)piperidin-1-yl)-3-fluorobenzamide] yielded a Dmax [1] of no less than 80% and a Dmax [2] of no less than 80%.

Work on `CC1(C)[C@H](NC(=O)c2ccc(N3CCC(CN4CCC(n5ccc6c(N7CCC(=O)NC7=O)ncnc65)CC4)CC3)c(F)c2)C(C)(C)[C@H]1Oc1ccc(C#N)c2ncccc12` [Example 47, N-((1r,3r)-3-((8-Cyanoquinolin-5-yl)oxy)-2,2,4,4-tetramethylcyclobutyl)-4-(4-((4-(4-(2,4-dioxotetrahydropyrimidin-1(2H)-yl)-7H-pyrrolo[2,3-d]pyrimidin-7-yl)piperidin-1-yl)methyl)piperidin-1-yl)-3-fluorobenzamide] yielded a Dmax [1] of no less than 80% and a Dmax [2] of no less than 80%.

For `CC1(C)[C@H](NC(=O)c2ccc(N3CCC(CN4CCC(n5ccc6c(N7CCC(=O)NC7=O)ncnc65)CC4)CC3)cc2)C(C)(C)[C@H]1Oc1ccc(C#N)c2ncccc12` [Example 28, N-((1r,3r)-3-((8-Cyanoquinolin-5-yl)oxy)-2,2,4,4-tetramethylcyclobutyl)-4-(4-((4-(4-(2,4-dioxotetrahydropyrimidin-1(2H)-yl)-7H-pyrrolo[2,3-d]pyrimidin-7-yl)piperidin-1-yl)methyl)piperidin-1-yl)benzamide], the Dmax [1] was no less than 80% and the Dmax [2] was no less than 80%.

Reference: patent US12577231B2, “Androgen receptor PROTACS” (GlaxoSmithKline Intellectual Property Development Limited, priority 2023, dated 2026)
